Assay results from US20160368872A1, “COMPOUNDS AND METHODS FOR TREATING CANCERS” (HEALTH RESEARCH, INC., priority 2013, published 2016).
Blank lines part the entries; values can stand above or below the molecule they belong to.

Key:
androgen receptor = test: AR level in cells with inhibited p53 activity; type: cell-based; conditions: MCF7 cells with functionally inactive p53 (R175H, GSE56)
Text: Also tested was the hypothesis that degradation of androgen receptor in prostate and breast cancer cells may be due to p53 induced accumulation of mdm2, which is also ubiquitin ligase for androgen receptor (FIG. 15). p53 was inactivated in several cell lines using different approaches what led to the blockade of mdm2 accumulation after c52 treatment. However androgen receptor was still degraded in c52 treated cells even in the absence of p53 activation and mdm2 accumulation (FIG. 16).

CWR22R = test: inhibition of growth of cell lines (IC50 categories); type: cell-based; conditions: Homo sapiens, 22Rv1
Experimental: (§1) This example provides a table (below) of the compounds of the present disclosure and their activity towards four different cell lines (i.e., CWR22R, Hela, PC3, and MDA-MB-231). The IC50 for inhibition of growth is divided into 4 categories: A<1 μM, B 1-5 μM, […], D>20 μM.
(§2) All compounds were tested for toxicity using 4 cells lines, target cells-CWR22R and non-target cells, Hela, PC3 and MDA-MB-231 (FIGS. 1A-F).

Hela = test: as above; type: cell-based; conditions: Homo sapiens
Experimental: as §1, §2

MDA-MB-231 = test: as above; type: cell-based; conditions: Homo sapiens
Experimental: as §1, §2

PC3 = test: as above; type: cell-based; conditions: Homo sapiens, PC-3
Experimental: as §1, §2

CWR22R cells [1] = type: cell-based
Experimental: as §2
LC50 data of in vitro 72 hours cytotoxicity assay are included in this table for comparison.

[2] = plasma concentration after intravenous and intraperitoneal injections (PK); type: in vivo; conditions: for bioavailability through IP injection: IP versus IV, doses 50-100 mg/kg; for course of plasma concentration: after intravenous and intraperitoneal injections, 50-100 mg/kg
CWR22R cells [3] = test: toxicity of PLA1055 to CWR22R cells depending on time of incubation (LC90, Alamar Blue); type: cell-based; conditions: incubation 4-8 hours; survival detected at 72 hours
Experimental: FIG. 21. Toxicity of PLA1055 to CWR22R cells in vitro depending on time of incubation. PLA1055 was added to CWR22R in full range of concentrations for the periods of time shown on the right. After that drug containing media were changed for drug free and survival of cells was detected at 72 hours after start of treatment using Alamar Blue assay (Promega).
An in vitro experiment was run to detect the concentration of PLA1055 needed to kill all tumor cells in vitro (LC90) during different periods of time (30 minutes-72 hours, FIG. 21)).

[4] = tissue drug concentrations in mice bearing CWR22R tumors; type: in vivo, SCID mice
Experimental: (§3) We tested these compounds in an in vivo efficacy experiment using model of CRPC in SCID mice, CWR22R. Two compounds, PLA1079 and 1125, which were synthesized in the amount of 500 mg were tested in full scale experiment with either 5 IV daily injections or 10 IP daily injections. After 5 IP or IV injections intra-tumor concentration of the compounds were measured in few mice from this experiment.
Two other compounds, PLA1148 and 1098 (PK testing in FIGS. 8 and 9) were tested in a small scale efficacy experiment. Upon PK testing of the compound PLA1148 one mouse was injected twice with 10 min interval. However the concentration of the drug in plasma of this mouse was not twice, but >4 times higher than in mice injected once. […] It was decided to utilize this observation in an attempt to get higher plasma and tumor concentration of both compounds. Therefore in the pilot efficacy experiment in the same model of CWR22R cells mice were treated with 2 IP injections with 10 minute interval. Treatment with PLA1098 was carried out for two days. […] However this is so far the highest concentration found in tumor. […]

CWR22R tumors = test: in vivo efficacy, subcutaneous xenografts of CWR22R cells in SCID mice
Experimental: as §3
(§4) Two other compounds, PLA1148 and 1098 (PK testing in FIGS. 8 and 9) were tested in a small scale efficacy experiment. Upon PK testing of the compound PLA1148 one mouse was injected twice with 10 min interval. However the concentration of the drug in plasma of this mouse was not twice, but >4 times higher than in mice injected once. […] It was decided to utilize this observation in an attempt to get higher plasma and tumor concentration of both compounds. Therefore in the pilot efficacy experiment in the same model of CWR22R cells mice were treated with 2 IP injections with 10 minute interval. Treatment with PLA1098 was carried out for two days. […] However this is so far the highest concentration found in tumor.
Pilot efficacy experiments were run for compounds: PLA1163, PLA1148 using the same model of subcutaneous xenografts of CWR22R cells in SCID mice (FIGS. 18 and 19).

Caveolin1 = test: expression of Caveolin1 in sensitive versus resistant cells; type: cell-based; conditions: MDA MB 231 and MCF7 cells
Text: FIG. 12. Expression of Caveolin1 in sensitive versus resistant cells. Caveolin1 is expressed in resistant MDA MB 231 cells, but not in sensitive MCF7 cells.

[5] = toxicity observed in mice of the pilot efficacy experiments; type: in vivo
Experimental: as §4
This compound may be also potentially promising.

[6] = tested on: presumable target protein in protein lysates from sensitive CWR22r cells; test: DARTS (Drug Affinity Responsive Target Stability) assay; conditions: treated vs untreated
Experimental: FIG. 24. DARTS (Drug Affinity Responsive Target Stability) assay was performed using c52 and PLA1118. According to this assay these compounds are capable of protecting presumable target protein from protease degradation. Protein lysates from sensitive CWR22r cells were incubated with or without the drug and subsequently digested with the indicated concentration of pronase. A. c52 was used (lane T-treated, M-marker) with indicated concentrations of pronase; ability of c52 to protect its target from protease cleavage was judged based on presence of protein band in the treated lane vs the untreated (UT) control.

[7] = solubility for in vivo administration; type: physicochemical
[8] = aqueous solubility (pH 7.4); type: physicochemical
[9] = metabolic stability in the presence of mouse liver microsomes; type: in vitro ADME
Experimental: 8 compounds were selected based on the solubility and metabolic stability as well as considering chemical diversity to test for time dependence stability in the presence of mouse […] (FIG. 2). […] Two compounds, PLA1190 and 1197, have desirable metabolic stability, 70 and 77% left after 30 minute incubation with mouse liver microsome respectively. Formulations for in vivo administration were developed for 4 compounds, PLA1079, 1125, 1098 and 1148.

[10] = 5 IV daily injections or 10 IP daily injections
[11] = 24 hours after last injection, 2 IP injections with 10 minute interval, two days
[12] = one mouse at 24 hours after injections
[13] = 2 IP injections with 10 minute interval, one day

Structure (SMILES): CC(=O)c1ccc2c(c1)c1cc(C(C)=O)ccc1n2CCNC(C)C [CBL 137, reference compound]
AR level (androgen receptor): AR is being degraded

IC50 (Hela): > 20000 nM | IC50 (MDA-MB-231): > 20000 nM | IC50 (PC3): > 20000 nM
Structure (SMILES): O=c1[nH]ccc2c1ccc1c2c2ncccc2n1CCC(F)F [Compound 15-1, 7-(3,3-Difluoropropyl)-3,7-dihydro-3,7,11-triaza-benzo[c]fluoren-4-one]
IC50 (CWR22R): > 20000 nM

Structure (SMILES): CC(=O)c1ccc2c(c1)c1ccccc1n2CCCF [PLA1055]
CC50 (CWR22R cells [1]): 40 nM | plasma concentration at 8 hours ([2]; 8 hours, single IV administration of 50 mg/kg (FIG. 20)): below 1 uM | time up to which compound was detected ([2]; single IV administration of 50 mg/kg (FIG. 20)): up to 24 hours | LC90 (CWR22R cells [3]): 2500 nM

Structure (SMILES): CCCn1c2ccccc2c2cc(-c3nnco3)ccc21 [PLA1079]
CC50 (CWR22R cells [1]): 120 nM | Tumor concentration ([4]; 100 mg/kg, IP/IV): 24 to 48 nM | bioavailability through IP injection [2]: very high bioavailability | course of plasma concentration [2]: fast reduction of concentration during the first hour | in vivo efficacy (CWR22R tumors; [10]): absence of in vivo efficacy | AR level (androgen receptor): AR is being degraded | levels of Caveolin1 expression (Caveolin1): did not change

Structure (SMILES): CCCn1c2ccccc2c2c3c(ccc21)C(=O)N(C)C3 [PLA1098]
CC50 (CWR22R cells [1]): 40 nM | Liver ([4]; 100 mg/kg, IP): 0 nM | Tumor concentration ([4]; 100 mg/kg, IP): 23 to 25 nM | Intratumor concentration ([4]; 2 tested tumors at 24 hours after last injection, 2 IP injections with 10 minute interval, two days): 25 nM | compound in liver [4, 11]: no detectable | compound in plasma [4, 11]: no detectable | bioavailability through IP injection [2]: very high bioavailability | course of plasma concentration [2]: fast reduction of concentration during the first hour | tumor volume and tumor weight vs vehicle control (CWR22R tumors; 2 IP injections with 10 minute interval for two days, tumors excised 12 days after treatment): certain reduction of tumor volume and tumor weigh in the 1098 treated group vs vehicle control, but not statistically significant | in vivo efficacy (CWR22R tumors; summary statement): evidence of in vivo efficacy | side effects during the treatment ([5]; 2 IP injections with 10 minute interval for two days): no signs of side effects were noticed | signs of toxicity ([5]; summary statement): without any signs of toxicity | protection of target protein band from pronase degradation [6]: protected their targets from degradation

solubility [7]: poorly soluble
Structure (SMILES): CCCn1c2ccccc2c2c3cc[nH]c(=O)c3ccc21 [PLA1099]

Structure (SMILES): CCCn1c2ccccc2c2cc(S(C)(=O)=O)ccc21 [PLA1118]
protection of target protein band from pronase degradation [6]: faintly

solubility [7]: poorly soluble
Structure (SMILES): O=c1[nH]ccc2c1ccc1c2c2ccccc2n1CCCF [PLA1121]

Structure (SMILES): FCCCn1c2ccccc2c2cc(-c3nnco3)ccc21 [PLA1125]
CC50 (CWR22R cells [1]): 100 nM | Tumor concentration ([4]; 100 mg/kg, IP/IV): 7 to 10 nM | bioavailability through IP injection [2]: very high bioavailability | course of plasma concentration [2]: fast reduction of concentration during the first hour | in vivo efficacy (CWR22R tumors; [10]): absence of in vivo efficacy

Structure (SMILES): O=C1NCCc2c1ccc1c2c2ncccc2n1CCCF [PLA1148]
Liver ([4]; 50 mg/kg, IP): 50 nM | Tumor concentration ([4]; 50 mg/kg, IP): 0 to 90 nM | Tumor concentration ([4]; 48 hours after treatment): 84 nM | liver concentration ([4]; 48 hours after treatment): 49 nM | plasma concentration ([4]; mice euthanized at 48 hours after treatment): The same plasma concentration | drug in liver [4, 12]: no drug detected | drug in tumor [4, 12]: no drug detected | plasma concentration [4, 12]: 8.5 nM | bioavailability through IP injection [2]: very high bioavailability | course of plasma concentration [2]: fast reduction of concentration during the first hour | concentration in plasma of mouse injected twice with 10 min interval versus mice injected once ([2]; one mouse injected twice): > 4 times | tumors of mice that died on the 5th day (CWR22R tumors; two mice, injected only one day): almost undetectable tumors | deaths of mice [5, 13]: 2 mice died next day and 3 other during next 5 days | toxicity after injection [5, 13]: acute toxicity developed quickly after injection, symptoms suggested acute liver failure

Structure (SMILES): O=C1NCCOc2c1ccc1c2c2ccccc2n1CCCF [PLA1163]
CC50 (CWR22R cells [1]): 200 nM | Liver ([4]; 40 mg/kg, IP): 307 nM | Tumor concentration ([4]; 40 mg/kg, IP): 4 to 10 nM | solubility [7]: poorly soluble

Aqueous Solubility Classification [8]: Low
Structure (SMILES): O=c1[nH]ccc2c1ccc1c2c2ncccc2n1CCCF [PLA1181]

Aqueous Solubility Classification [8]: Low | Aqueous Solubility (pH 7.4) [8]: 3.5 μM | left after 30 minute incubation with mouse liver microsome [9]: 70%
Structure (SMILES): O=c1[nH]c2ccc3c(c4ccccc4n3CCCF)c2o1 [PLA1190]

Aqueous Solubility Classification [8]: High | Aqueous Solubility (pH 7.4) [8]: 130 μM
Structure (SMILES): CC(=O)c1ccc2c(c1)c1c(C(N)=O)cccc1n2CCCF [PLA1191]

Structure (SMILES): O=c1c2ccc3c(c2ccn1CCO)c1ccccc1n3CCCF [PLA1192]
Aqueous Solubility Classification [8]: Moderate | Aqueous Solubility (pH 7.4) [8]: 15 μM

Aqueous Solubility Classification [8]: High | Aqueous Solubility (pH 7.4) [8]: 140 μM
Structure (SMILES): O=c1c2ccc3c(c2ccn1CCN1CCCC1)c1ccccc1n3CCCF [PLA1193]

Structure (SMILES): CN1Cc2c(ccc3c2c2ccccc2n3CCC(F)F)C1=O [PLA1194]
Aqueous Solubility Classification [8]: Moderate | Aqueous Solubility (pH 7.4) [8]: 18 μM

Aqueous Solubility Classification [8]: Low | Aqueous Solubility (pH 7.4) [8]: 2.7 μM
Structure (SMILES): N#Cc1cccc2c1c1c3cc[nH]c(=O)c3ccc1n2CCCF [PLA1195]

Structure (SMILES): NC(=O)c1cccc2c1c1c3cc[nH]c(=O)c3ccc1n2CCCF [PLA1196]
Aqueous Solubility Classification [8]: Moderate | Aqueous Solubility (pH 7.4) [8]: 26 μM

Aqueous Solubility Classification [8]: Low | Aqueous Solubility (pH 7.4) [8]: 4.0 μM | left after 30 minute incubation with mouse liver microsome [9]: 77%
Structure (SMILES): O=C1CCc2c1ccc1c2c2c(F)cccc2n1CCCF [PLA1197]

Aqueous Solubility Classification [8]: Low | Aqueous Solubility (pH 7.4) [8]: 2.5 μM
Structure (SMILES): CC(=O)c1ccc2c(c1)c1c3c(ccc1n2CCCF)C(=O)CC3 [PLA1198]

Aqueous Solubility Classification [8]: Low | Aqueous Solubility (pH 7.4) [8]: 2.3 μM
Structure (SMILES): O=C1CCc2c1ccc1c2c2cc(Br)ccc2n1CCCF [PLA1199]
